Reference: patent US20080293969A1, “18F-Labeled Daa Analogues and Method of Labeling These Analogues as Positron Emission Tomography (Pet) Tracers For Imaging Peripheral Benzodiazepine Receptors” (GE Healthcare Limited, priority 2005, published 2008)

Legend:
PBR = PBR (Homo sapiens, UniProt P30536); details: reported, Drug Dev. Research, 2001, vol. 52, 475-484; cited from earlier work
Biodistribution in rats = format: in vivo, male Sprague-Dawley rats; details: 10 MBq/kg tail vein, 15 min post-injection
Procedure: SAN1 at 10 MBq/kg was injected in the tail vein of male Sprague-Dawley rats. Rats were sacrificed 15 min post-injection and blood, cortex, olfactory bulb, adrenal and cerebellum were dissected, weighed and radioactivity in the organs was measured. Uptake in organs was expressed as Standardized Uptake Value, SUV. The scope of this experiment was to assess blood brain penetration of the radiolabeled compound as well as its distribution to organs known to express PBR, e.g. adrenal medulla. […] Additionally, we observed a large uptake of SAN1 in adrenal which is the peripheral organ with the highest density of PBRs. Biodistribution data from 4 rats was summarized and is shown in the diagram below, error bars represent the SEM.

[1] = tested on: peripheral benzodiazepine receptors (PBR); test: Frozen section autoradiography; format: binding, pig; details: frozen section autoradiography
Procedure: (§1) Frozen Section Autoradiography.
(§2) Cryosections of pig adrenal, rat heart and rat brain were incubated with [^18F] labeled N-(2,5-dimethoxybenzyl)-3-fluoro-N-(5-fluoro-2-phenoxy-phenyl)propanamide (SAN1) for 40 min at R.T. in 50 mM Tris-HCl, pH 7.4, in the presence or absence of 1 μM PK11195 (selective PBR ligand). Thereafter, sections were washed in buffer 3×1 min, dried in a heated oven (37° C.) and exposed to phosphor imaging plates for 240 min. Assessment of the selectivity of the radioligand for PBRs was assessed by comparing the regional distribution of radioactivity with known distribution of PBRs in tissue. Another parameter investigated was the blocking effect in sections which were co-incubated with an excess of PK11195.

[2] = biological target: T1, peripheral benzodiazepine receptors (PBR) (Sus scrofa, UniProt Q6UN27); test: Frozen section autoradiography; format: binding, pig
T1 construct: from tissue; host or cells: pig adrenal cryosections (rat heart and rat brain sections were run in the same assay)
T1 sequence (Q6UN27 1-169): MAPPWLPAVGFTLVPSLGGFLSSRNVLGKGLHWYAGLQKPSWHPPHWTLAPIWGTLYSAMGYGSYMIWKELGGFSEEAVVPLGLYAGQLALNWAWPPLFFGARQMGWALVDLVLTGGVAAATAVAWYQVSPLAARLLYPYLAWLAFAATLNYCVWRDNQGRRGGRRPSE
Procedure: as §1, §2

PBR, sequence (P30536 whole entry, species assumed): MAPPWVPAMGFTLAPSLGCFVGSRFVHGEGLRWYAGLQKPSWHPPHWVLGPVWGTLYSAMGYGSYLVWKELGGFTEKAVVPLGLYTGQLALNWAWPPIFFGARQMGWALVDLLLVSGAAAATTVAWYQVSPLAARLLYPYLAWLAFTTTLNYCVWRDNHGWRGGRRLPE

Structure (SMILES): CC(=O)N(Cc1ccccc1OC(C)C)c1ccc(Cl)cc1Oc1ccccc1 [DAA1097, N-(4-chloro-2-phenoxyphenyl)-N-(2-isopropoxybenzyl)-acetamide]
- affinity and selectivity for PBR (PBR): high affinity selective ligands

Structure (SMILES): COc1ccc(OC)c(CN(C(C)=O)c2cc(F)ccc2Oc2ccccc2)c1 [DAA1106, N-(2,5-dimethoxybenzyl)-N-(5-fluoro-2-phenoxyphenyl)acetamide]
- affinity and selectivity for PBR (PBR): high affinity selective ligands

Structure (SMILES): COc1ccc(OC)c(CN(C(=O)CC[18F])c2cc(F)ccc2Oc2ccccc2)c1 [SAN1, [^18F] labeled N-(2,5-dimethoxybenzyl)-3-fluoro-N-(5-fluoro-2-phenoxy-phenyl)propanamide]
- brain to blood ratio (Biodistribution in rats; all regions analyzed (cortex, olfactory bulb, cerebellum), particularly olfactory bulb): above 1
- uptake in adrenal (Biodistribution in rats; uptake expressed as SUV): large uptake
- binding and specificity for PBR-rich tissues [1]: good binding and specificity
- blocking of adrenal medulla uptake by an excess of PK11195 ([2]; co-incubated with 1 μM PK11195): completely blocked
- uptake in adrenal medulla ([2]; cryosections of pig adrenal, incubated 40 min at R.T., 50 mM Tris-HCl pH 7.4): high uptake
